Measured values from PubChem BioAssay AID1963828 (Molecular Pharmacology Branch, DTP, NCI, 2024).

Tested on: 991263-137-R1-J2-PDC complex spheroid viability
Assay: Anticancer human tumor 991263-137-R1-J2-PDC patient-derived colon adenocarcinoma cell line growth inhibition [POLQ]
Details: for IC50: curve of first compound; for viability, T/C: stronger effect = lower value
Procedure, shortened: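 PDC + HUVEC + MSC complex spheroids; POLQ inhibitors ± partner drugs; top conc. at/near clinical Cmax, else 10 microM (SN-38 1 microM), half-log dilutions; 37 degrees C, 5% CO2.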

[1] = second compound 0.0316 µM, first compound 0.0316 µM
[2] = second compound 0.0316 µM, first compound 0.1 µM
[3] = second compound 0.0316 µM, first compound 0.316 µM
[4] = second compound 0.0316 µM, first compound 1 µM
[5] = second compound 0.0316 µM, first compound 3.16 µM
[6] = second compound 0.0316 µM, first compound 10 µM
[7] = second compound 0.1 µM, first compound 0.0316 µM
[8] = second compound 0.1 µM, first compound 0.1 µM
[9] = second compound 0.1 µM, first compound 0.316 µM
[10] = second compound 0.1 µM, first compound 1 µM
[11] = second compound 0.1 µM, first compound 3.16 µM
[12] = second compound 0.1 µM, first compound 10 µM
[13] = second compound 0.316 µM, first compound 0.0316 µM
[14] = second compound 0.316 µM, first compound 0.1 µM
[15] = second compound 0.316 µM, first compound 0.316 µM
[16] = second compound 0.316 µM, first compound 1 µM
[17] = second compound 0.316 µM, first compound 3.16 µM
[18] = second compound 0.316 µM, first compound 10 µM
[19] = second compound 1 µM, first compound 0.0316 µM
[20] = second compound 1 µM, first compound 0.1 µM
[21] = second compound 1 µM, first compound 0.316 µM
[22] = second compound 1 µM, first compound 1 µM
[23] = second compound 1 µM, first compound 3.16 µM
[24] = second compound 1 µM, first compound 10 µM
[25] = second compound 3.16 µM, first compound 0.0316 µM
[26] = second compound 3.16 µM, first compound 0.1 µM
[27] = second compound 3.16 µM, first compound 0.316 µM
[28] = second compound 3.16 µM, first compound 1 µM
[29] = second compound 3.16 µM, first compound 3.16 µM
[30] = second compound 3.16 µM, first compound 10 µM
[31] = second compound 10 µM, first compound 0.0316 µM
[32] = second compound 10 µM, first compound 0.1 µM
[33] = second compound 10 µM, first compound 0.316 µM
[34] = second compound 10 µM, first compound 1 µM
[35] = second compound 10 µM, first compound 3.16 µM
[36] = second compound 10 µM, first compound 10 µM
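Further: spheroids exposed to compounds for 7 days before readout.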
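Wherever viability, T/C is given: 100% = DMSO vehicle control viability.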

C=CC(=O)N1CCN(c2nc(=O)n(-c3c(C)ccnc3C(C)C)c3nc(-c4c(O)cccc4F)c(F)cc23)C(C)C1 (stereo unspecified) + Nc1ccc(C#CCN(C(=O)Cc2ncc(C(F)(F)F)cc2C(F)(F)F)c2ccc(F)cc2)nn1
IC50 (second compound 0.0316 µM): > 10 µM | IC50 (second compound 0.1 µM): > 10 µM | IC50 (second compound 0.316 µM): > 10 µM | IC50 (second compound 1 µM): > 10 µM | IC50 (second compound 3.16 µM): > 10 µM | IC50 (second compound 10 µM): > 10 µM | viability, T/C [1]: 108% | viability, T/C [2]: 100% | viability, T/C [3]: 99.3% | viability, T/C [4]: 96.5% | viability, T/C [5]: 109% | viability, T/C [6]: 116% | viability, T/C [7]: 102% | viability, T/C [8]: 104% | viability, T/C [9]: 114% | viability, T/C [10]: 98% | viability, T/C [11]: 117% | viability, T/C [12]: 105% | viability, T/C [13]: 104% | viability, T/C [14]: 105% | viability, T/C [15]: 102% | viability, T/C [16]: 96.7% | viability, T/C [17]: 113% | viability, T/C [18]: 106% | viability, T/C [19]: 110% | viability, T/C [20]: 105% | viability, T/C [21]: 107% | viability, T/C [22]: 97.7% | viability, T/C [23]: 107% | viability, T/C [24]: 100% | viability, T/C [25]: 94.5% | viability, T/C [26]: 85.6% | viability, T/C [27]: 102% | viability, T/C [28]: 102% | viability, T/C [29]: 106% | viability, T/C [30]: 110% | viability, T/C [31]: 96.6% | viability, T/C [32]: 107% | viability, T/C [33]: 90.6% | viability, T/C [34]: 117% | viability, T/C [35]: 99.8% | viability, T/C [36]: 100%

C=CCn1c(=O)c2cnc(Nc3ccc(N4CCN(C)CC4)cc3)nc2n1-c1cccc(C(C)(C)O)n1 + Nc1ccc(C#CCN(C(=O)Cc2ncc(C(F)(F)F)cc2C(F)(F)F)c2ccc(F)cc2)nn1
IC50 (second compound 0.0316 µM): > 1 µM | IC50 (second compound 0.1 µM): > 1 µM | IC50 (second compound 0.316 µM): > 1 µM | IC50 (second compound 1 µM): > 1 µM | IC50 (second compound 3.16 µM): > 1 µM | IC50 (second compound 10 µM): > 1 µM | viability, T/C (second compound 0.0316 µM, first compound 0.00316 µM): 96.2% | viability, T/C (second compound 0.0316 µM, first compound 0.01 µM): 100% | viability, T/C [1]: 90.4% | viability, T/C [2]: 102% | viability, T/C [3]: 104% | viability, T/C [4]: 97.8% | viability, T/C (second compound 0.1 µM, first compound 0.00316 µM): 117% | viability, T/C (second compound 0.1 µM, first compound 0.01 µM): 105% | viability, T/C [7]: 93.6% | viability, T/C [8]: 101% | viability, T/C [9]: 103% | viability, T/C [10]: 93.8% | viability, T/C (second compound 0.316 µM, first compound 0.00316 µM): 97.3% | viability, T/C (second compound 0.316 µM, first compound 0.01 µM): 98.2% | viability, T/C [13]: 108% | viability, T/C [14]: 96.3% | viability, T/C [15]: 109% | viability, T/C [16]: 93.5% | viability, T/C (second compound 1 µM, first compound 0.00316 µM): 103% | viability, T/C (second compound 1 µM, first compound 0.01 µM): 115% | viability, T/C [19]: 103% | viability, T/C [20]: 105% | viability, T/C [21]: 105% | viability, T/C [22]: 92% | viability, T/C (second compound 3.16 µM, first compound 0.00316 µM): 91.8% | viability, T/C (second compound 3.16 µM, first compound 0.01 µM): 102% | viability, T/C [25]: 101% | viability, T/C [26]: 92.1% | viability, T/C [27]: 98.1% | viability, T/C [28]: 102% | viability, T/C (second compound 10 µM, first compound 0.00316 µM): 86.3% | viability, T/C (second compound 10 µM, first compound 0.01 µM): 102% | viability, T/C [31]: 103% | viability, T/C [32]: 99.4% | viability, T/C [33]: 102% | viability, T/C [34]: 78.2%

CC(C)n1c(=O)n(C)c2cnc3cc(F)c(-c4ccc(OCCCN5CCCCC5)nc4)cc3c21 + Nc1ccc(C#CCN(C(=O)Cc2ncc(C(F)(F)F)cc2C(F)(F)F)c2ccc(F)cc2)nn1
IC50 (second compound 0.0316 µM): > 10 µM | IC50 (second compound 0.1 µM): > 10 µM | IC50 (second compound 0.316 µM): > 10 µM | IC50 (second compound 1 µM): > 10 µM | IC50 (second compound 3.16 µM): > 10 µM | IC50 (second compound 10 µM): > 10 µM | viability, T/C [1]: 96.6% | viability, T/C [2]: 109% | viability, T/C [3]: 111% | viability, T/C [4]: 121% | viability, T/C [5]: 98.8% | viability, T/C [6]: 111% | viability, T/C [7]: 103% | viability, T/C [8]: 99.8% | viability, T/C [9]: 102% | viability, T/C [10]: 121% | viability, T/C [11]: 101% | viability, T/C [12]: 85.8% | viability, T/C [13]: 104% | viability, T/C [14]: 99.4% | viability, T/C [15]: 101% | viability, T/C [16]: 110% | viability, T/C [17]: 103% | viability, T/C [18]: 111% | viability, T/C [19]: 105% | viability, T/C [20]: 100% | viability, T/C [21]: 105% | viability, T/C [22]: 104% | viability, T/C [23]: 95.5% | viability, T/C [24]: 90.1% | viability, T/C [25]: 90.7% | viability, T/C [26]: 97.7% | viability, T/C [27]: 106% | viability, T/C [28]: 118% | viability, T/C [29]: 111% | viability, T/C [30]: 105% | viability, T/C [31]: 99% | viability, T/C [32]: 96.2% | viability, T/C [33]: 112% | viability, T/C [34]: 94.5% | viability, T/C [35]: 93.5% | viability, T/C [36]: 101%
